Several values for one entry are separate records, joined by “and”; a condition that tells them apart may be missing. Equal values may be shown once.
What was measured:
CDK5 = CDK5 (Homo sapiens (Human), UniProt Q00535); assay: Enzyme inhibition test, radiolabeled ATP, CDK5; assay type: biochemical; settings: dose-response curves
Experimental: (§1) The tests are carried out as follows: the enzyme to be assayed was purified, for example by affinity chromatography on agarose beads. The catalytic activity was measured using radiolabeled ATP, at a standard final concentration. The test compounds were added at various concentrations making it possible to establish dose-response curves (activity of the enzyme as a function of the concentration). The IC50 values were calculated from these curves and are given in μM.

SHSY cells = assay: MTS test, viability of SHSY cells; assay type: cell-based; settings: MTS reduction
Experimental: The viability of SHSY cells is determined by measuring the MTS reduction as described in (6).

CDK1 = assay: Enzyme inhibition test, radiolabeled ATP, CDK1; assay type: biochemical; settings: dose-response curves
Experimental: as §1

Sequence of CDK5 (Q00535 whole entry, species assumed): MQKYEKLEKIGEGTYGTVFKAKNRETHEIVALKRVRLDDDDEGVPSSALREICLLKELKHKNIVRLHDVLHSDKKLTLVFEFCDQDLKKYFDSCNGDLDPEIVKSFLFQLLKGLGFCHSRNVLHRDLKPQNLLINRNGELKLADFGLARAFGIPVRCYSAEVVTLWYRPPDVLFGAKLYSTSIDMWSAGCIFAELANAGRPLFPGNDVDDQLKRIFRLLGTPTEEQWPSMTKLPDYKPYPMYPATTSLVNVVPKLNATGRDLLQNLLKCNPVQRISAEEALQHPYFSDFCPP
Sequence of CDK5 (Q15078 99-307 partner, species assumed): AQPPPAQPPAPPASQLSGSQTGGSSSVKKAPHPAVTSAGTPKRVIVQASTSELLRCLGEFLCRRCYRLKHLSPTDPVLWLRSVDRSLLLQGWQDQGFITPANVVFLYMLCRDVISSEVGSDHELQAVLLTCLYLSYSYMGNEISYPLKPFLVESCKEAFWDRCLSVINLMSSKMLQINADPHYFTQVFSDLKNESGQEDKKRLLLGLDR

Row | Compound | IC50 (CDK5) | % survival of SHSY cells at 10 μM (SHSY cells) [%] | melting point [°C] | IC50 (CDK1) [µM]
1 | C[Si](C)(C)C1=C2c3nc4ccccc4cc3C(O)CC2CC1=O (racemic) [5-Hydroxy-1-trimethylsilanyl-3,3a,4,5-tetrahydro-2H-cyclopenta[c]acridin-2-one] | 1.6 to 2.3 µM | 85 | 167 to 168 | –
2 | C=CC(O)c1cc2ccccc2nc1C#C[Si](C)(C)C (stereo not drawn) [1-(2-(Trimethylsilanylethynyl)quinolin-3-yl)propan-2-en-1-ol] | – | 0.4 | – | –
3 | C=CCC(O)c1cc2ccccc2nc1C#CCOC1CCCCO1 (stereo not drawn) [1-(2-[3-(Tetrahydropyran-2-yloxy)prop-1-ynyl]quinolin-3-yl)but-3-en-1-ol] | – | 2 | – | –
4 | COc1ccc2cc3c(nc2c1)C1=C([Si](C)(C)C)C(=O)CC1CC3O (stereo not drawn) [5-Hydroxy-9-methoxy-1-trimethylsilanyl-3,3a,4,5-tetrahydro-2H-cyclopenta[c]acridin-2-one] | 4.8 µM | 44 | 187 | 1.6
5 | CCCCC1=C2c3nc4ccccc4cc3C(=O)CC2CC1=O (stereo not drawn) [5-Keto-1-butyl-3,3a,4,5-tetrahydro-2H-cyclopenta[c]acridin-2-one] | – | 38 | – | –
6 | C[Si](C)(C)C1=C2c3nc4ccccc4cc3C(Cl)CC2CC1=O (stereo not drawn) [5-Chloro-1-trimethylsilanyl-3,3a,4,5-tetrahydro-2H-cyclopenta[c]acridin-2-one] | 63 µM | – | – | 3.6
7 | C[Si](C)(C)C#Cc1nc2ccccc2cc1C(=O)CC[N+](=O)[O-] [1-(2-Trimethylsilanylethynyl)quinolin-3-yl)propan-3-nitro-1-one] | – | 47 | – | –
8 | COc1cc2cc3c(nc2cc1OC)C1=C([Si](C)(C)C)C(=O)CC1CC3O (stereo not drawn) [5-Hydroxy-8,9-dimethoxy-1-trimethylsilanyl-3,3a,4,5-tetrahydro-2H-cyclopenta[c]acridin-2-one] | 3.3 µM | – | 221 to 222 | 1.7
9 | C[Si](C)(C)C1=C2c3nc4ccccc4cc3C(O)CC2CC1=O (single isomer, unassigned) [5-hydroxy-1-trimethylsilanyl-3,3a,4,5-tetrahydro-2H-cyclopen] [5-hydroxy-1-trimethylsilanyl-3,3a,4,5-tetrahydro-2H-cyclopenta[c]acridin-2-one] | 26 µM and 3 µM | – | – | –
10 | CC(=O)c1cc2ccccc2nc1C#Cc1ccccn1 [1-(2-(Pyridin-2-ylethynyl)quinolin-3-yl)ethanone] | – | 4 | – | –
11 | COc1ccc2nc3c(cc2c1)C(O)CC1CC(=O)C([Si](C)(C)C)=C31 (stereo not drawn) [5-Hydroxy-8-methoxy-1-trimethylsilanyl-3,3a,4,5-tetrahydro-2H-cyclopenta[c]acridin-2-one] | 4 µM | – | 186 | 1.7

— patent US8999955B2, “Tetrahydrocyclopenta[c]acridine derivatives as kinase inhibitors and biological” (Centre National de la Recherche Scientifique, priority 2008, dated 2015)
